Experimental data: patent US20210147367A1, “CRYSTALLINE FORMS OF A MAGL INHIBITOR” (Lundbeck La Jolla Research Center, Inc., priority 2019, published 2021)
Entries after “also recorded” stand apart in the source; their conditions may differ. Where two headings read alike, the source gives them in different places.

Columns and labels:
[1] = Differential scanning calorimetry (DSC) with XRPD after heating: relative stability of crystalline forms; format: physicochemical; settings: for thermodynamic stability relative to other crystalline forms: DSC analysis; for solid form after heating (XRPD): heated to 130° C., above the exotherm, prior to melting
Protocol: X-Ray powder diffractograms were measured on a PANalytical X'Pert PRO X-Ray Diffractometer using CuKα1 radiation (λ=1.5406 Å). The samples were measured in reflection mode in the 2θ-range 3-40 using an X'celerator detector.
Differential Scanning Calorimetry was measured using a TA-Instruments Discovery-DSC calibrated at 5°/min to give the melting point as onset value. About 2 mg of sample is heated 5°/min under nitrogen flow in a closed pan with a pinhole in the lid.

[2] = Slurry experiments in different solvents; format: physicochemical
[3] = Dynamic vapor sorption (DVS); format: physicochemical
Protocol: Dynamic vapour sorption (DVS) was measured using SMS DVS advantage 01 changing the relative humidity from 0% RH to 95% RH in steps of 10% RH (5% between 90 and 95% RH). 2 cycles were performed using 4 mg, starting at 30% RH. The weight changes during the sorption/desorption cycles were plotted, allowing for the hygroscopic nature of the sample to be determined.

[4] = biological target: T1, MAGL (Homo sapiens, UniProt Q99685); test: In vitro competitive activity-based protein profiling; format: biochemical
T1 construct: human prefrontal cortex or cell membrane fractions for human assays; from tissue
T1 sequence (Q99685 1-303): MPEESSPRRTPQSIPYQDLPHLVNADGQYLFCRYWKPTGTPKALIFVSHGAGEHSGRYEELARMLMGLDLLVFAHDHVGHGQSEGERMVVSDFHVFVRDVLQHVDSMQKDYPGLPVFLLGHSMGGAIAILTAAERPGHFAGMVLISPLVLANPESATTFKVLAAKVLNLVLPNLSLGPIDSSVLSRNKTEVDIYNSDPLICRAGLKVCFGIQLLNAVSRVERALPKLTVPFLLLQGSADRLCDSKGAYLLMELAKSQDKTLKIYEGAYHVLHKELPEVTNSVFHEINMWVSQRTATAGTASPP
Protocol: (§1) Proteomes (mouse brain membrane fraction or cell lysates for mouse assays; human prefrontal cortex or cell membrane fractions for human assays) (50 μL, 1.0 mg/mL total protein concentration) were preincubated with varying concentrations of inhibitors at 37° C. After 30 min, FP-Rh or HT-01 (1.0 μL, 50 μM in DMSO) was added and the mixture was incubated for another 30 min at 37° C. Reactions were quenched with SDS loading buffer (15 μL-4×) and run on SDS-PAGE. Following gel imaging, serine hydrolase activity was determined by measuring fluorescent intensity of gel bands corresponding to MAGL using ImageJ 1.43u software.

[5] = biological target: T2, MAGL (Mus musculus, UniProt O35678); test: MAGL inhibition in mouse brain proteomes from inhibitor treated mice; format: in vivo; settings: 5 mg/kg oral gavage, brain proteome 4 h after administration, C57Bl/6J mice, read-out: MAGL % inh. 5 mg/kg (mouse)
T2 construct: from tissue; host or cells: brain of wild-type C57Bl/6J mice
T2 sequence (O35678 1-303): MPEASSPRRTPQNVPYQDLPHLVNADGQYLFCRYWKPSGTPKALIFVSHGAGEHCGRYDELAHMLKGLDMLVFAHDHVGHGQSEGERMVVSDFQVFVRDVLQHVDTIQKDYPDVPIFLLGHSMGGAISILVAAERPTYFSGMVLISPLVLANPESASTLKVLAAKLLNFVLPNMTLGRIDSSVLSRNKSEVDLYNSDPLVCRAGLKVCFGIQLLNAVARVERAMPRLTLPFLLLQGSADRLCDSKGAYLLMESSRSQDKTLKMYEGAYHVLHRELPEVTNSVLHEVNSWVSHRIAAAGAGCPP
Protocol: as §1
Inhibitors were administered to wild-type C57Bl/6J by oral gavage in a vehicle of polyethylene glycol. Each animal was sacrificed 4 h following administration and brain proteomes were prepared and analyzed according to previously established methods (See Niphakis et al., ACS Chem. Neurosci. 2011 and Long et al. Nat. Chem. Biol. 2009).

## CC(C)(Oc1cc(C(F)(F)F)ccc1CN1CCN(C(=O)OC(C(F)(F)F)C(F)(F)F)CC1)C(=O)O [Compound (I) form A, 2-(2-((4-(((1,1,1,3,3,3-hexafluoropropan-2-yl)oxy)carbonyl)piperazin-1-yl)methyl)-5-(trifluoromethyl)phenoxy)-2-methylpropanoic acid form A]
[1]
  thermodynamic stability relative to other crystalline forms: the most stable free form up to 60 °C
[1]; listed as Compound (I) Form A
  thermodynamic stability relative to other crystalline forms: thermodynamically more stable than Compound (I) Form C; also recorded: thermodynamically more stable than Compound (I) Form E
[2]; different solvents, temperatures up to 60° C.
  transformation of solid form in slurry: did not lead to transformation into Compound (I) Form D

## CC(C)(Oc1cc(C(F)(F)F)ccc1CN1CCN(C(=O)OC(C(F)(F)F)C(F)(F)F)CC1)C(=O)O [Compound (I) form C, 2-(2-((4-(((1,1,1,3,3,3-hexafluoropropan-2-yl)oxy)carbonyl)piperazin-1-yl)methyl)-5-(trifluoromethyl)phenoxy)-2-methylpropanoic acid form C]
[1]; listed as Compound (I) Form C
  solid form after heating (XRPD): transformed into Form A

## CC(C)(Oc1cc(C(F)(F)F)ccc1CN1CCN(C(=O)OC(C(F)(F)F)C(F)(F)F)CC1)C(=O)O [Compound (I) form D, 2-(2-((4-(((1,1,1,3,3,3-hexafluoropropan-2-yl)oxy)carbonyl)piperazin-1-yl)methyl)-5-(trifluoromethyl)phenoxy)-2-methylpropanoic acid form D]
[1]
  thermodynamic stability relative to other crystalline forms: more thermodynamically stable at higher temperatures
[1]; listed as Compound (I) Form D
  thermodynamic stability relative to other crystalline forms: more thermodynamically stable at high temperature but less stable at low temperature compared to Compound (I) Form A
[2]; compared with Form A, inferred from slurry experiments
  temperature above which Compound (I) Form D is the more stable form: ≥ 60 °C

## CC(C)(Oc1cc(C(F)(F)F)ccc1CN1CCN(C(=O)OC(C(F)(F)F)C(F)(F)F)CC1)C(=O)O [Compound (I) form E, 2-(2-((4-(((1,1,1,3,3,3-hexafluoropropan-2-yl)oxy)carbonyl)piperazin-1-yl)methyl)-5-(trifluoromethyl)phenoxy)-2-methylpropanoic acid form E]
[1]; listed as Form E
  solid form after heating (XRPD): transformed into Compound (I) Form A

## CC(C)(Oc1cc(C(F)(F)F)ccc1CN1CCN(C(=O)OC(C(F)(F)F)C(F)(F)F)CC1)C(=O)O.O [Compound (I) hydrate, 2-(2-((4-(((1,1,1,3,3,3-hexafluoropropan-2-yl)oxy)carbonyl)piperazin-1-yl)methyl)-5-(trifluoromethyl)phenoxy)-2-methylpropanoic acid hydrate]
[3]; 0% RH to 95% RH, 2 cycles
  behaviour in sorption/desorption cycles: dehydration of the hydrate occurs at low relative humidity
[3]; after 2 cycles 0% RH to 95% RH
  solid state after DVS measurement: turned amorphous

## CC(C)(Oc1cc(C(F)(F)F)ccc1CN1CCN(C(=O)OC(C(F)(F)F)C(F)(F)F)CC1)C(=O)O [Compound (I), 2-(2-((4-(((1,1,1,3,3,3-hexafluoropropan-2-yl)oxy)carbonyl)piperazin-1-yl)methyl)-5-(trifluoromethyl)phenoxy)-2-methylpropanoic acid]
[4]; 1 μM, human proteome, read-out: MAGL % inh. 1 μM (human)
  inhibition at 1 µM: ≥ 75%
[4]; human proteome, read-out: MAGL IC50 (human)
  IC50: ≤ 50 nM
[4]; protocol of example 14, read-out: MAGL IC50
  IC50: ≤ 50 nM
[5]
  inhibition at 5 mg/kg: ≥ 75%
